According to patent US10209240B2, “Predicting human developmental toxicity of pharmaceuticals using human stem-like cells and metabolomic ratios” (STEMINA BIOMARKER DISCOVERY, INC., priority 2012, dated 2019):
Where two headings read alike, the source gives them in different places. Marks after values point to notes of the source that are not given here.

Key:
WA09 hES cells [1] = assay: Phase 2 targeted biomarker assay, ornithine/cystine ratio, 9-point dose response
Source text: Undifferentiated hES Cell Line Maintenance (Phases 1 and 2). WA09 hES cells were obtained from the WiCell Research Institute (Madison, Wis.) and were maintained in feeder free conditions using mTeSR1 media (StemCell Technologies, Inc., Vancouver, BC, Canada) on hESC-qualified Matrigel (BD Biosciences, San Jose, Calif.) coated 6-well plates. To maintain the undifferentiated stem cell population, differentiated colonies were removed daily through aspiration and media was replaced. Additionally, the hES cells were only used in experiments up to passage 40 and were karyotyped approximately every 10 passages to minimize and monitor the potential for genetic instability. hES cells were passaged at 90-95% confluency (approximately every 7 days) using Versene (Life Technologies, Grand Island, N.Y.). Cell cultures were maintained at 37° C. under 5% CO2.
96-well hES Cell Plating (Phases 1 and 2). All experimental treatments were carried out in 96-well plates. To minimize plating variability and increase reproducibility, hES cells were plated as a single cell suspension and maintained in an undifferentiated state during compound exposure. Prior to plating in the 96-well plates, hES cells were removed from a 6-well plate using TrypLE (Life Technologies). The cells were washed with DMEM/F12 (Life Technologies) and resuspended in mTeSR1 containing 10 μM Y27632 Rho-associated kinase (ROCK) inhibitor (Merck KGaA/Calbiochem, Darmstadt, Germany). The ROCK inhibitor is added to the plating media to increase plating efficiency by decreasing dissociation-induced apoptosis. The inner 60 wells of hESC-qualified Matrigel coated 96-well plates were seeded at a density of 100,000 cells per well. The outer wells of the plate contained an equal volume media to minimize differences in humidity across the plate. Compound exposure began 24 hours after plating.
(§1) Phase 2 hES Cell Compound Exposure. […] The standard compound exposure levels used for most compounds were nine, 3-fold dilutions ranging from 0.04 μM-300 μM (FIG. 1B). […] The stock solution was diluted 1:1000 in mTeSR1 media and subsequent dilutions were performed in mTeSR1 containing 0.1% DMSO such that the final concentration of DMSO was 0.1% in all treatments. hES cells were treated for 72 hours and spent media from the last 24-hour treatment period was collected and added to acetonitrile containing ^13C6 labeled arginine (Cambridge Isotope Laboratories, Andover, Md.) as described under Phase 1. Spent media samples were stored at −80° C. until prepared for LC-HRMS analysis. Cell viability was assessed using the CellTiter-Fluor Cell Viability Assay. A quality control step was included with criteria that the CV of the measured viability RFU of the DMSO control cells could not exceed 10% for a plate to undergo LC-HRMS analysis. A dose response curve was fit to the reference treatment (0.1% DMSO treated control cells) normalized data (Viability RFUTrt X/Viability RFUDMSO) using a four-parameter log-logistic model with the R package “drc” (Ritz and Streibig, 2005, J Statistical Software; 12:1-22).
Sample Preparation (Phases 1 and 2). High molecular weight constituents (>10 KDa) of the spent media samples were removed using a Millipore Multiscreen Ultracel-10 filter plate (EMD Millipore, Billerica, Mass.). Prior to sample filtration, the filter plate was washed with 0.1% NaOH to remove a known contaminant polymer. The plate was then rinsed twice with HPLC-grade water to remove residual polymers and NaOH. Spent media samples were added to the washed filter plate. In Phase 1, samples were spiked with ^13C6 labeled arginine. Samples were centrifuged at 2,000×g at 4° C. for 200 minutes. The filtrate was collected and concentrated overnight in a Savant High Capacity Speedvac Plus Concentrator.

WA09 hES cells [2] = tested on: WA09 hES cells
Procedure: Phase I hES Cell Compound Exposure. hES cells were treated with a test compound at a single concentration equivalent to the compound's published therapeutic Cmax. […] This was done to ensure that enough cells were present at the time of sample collection to provide a signal for LC-HRMS analysis. For test compound exposure, all compound stock solutions, with the exception of valproic acid, were made with DMSO (Sigma-Aldrich). […] Each 96-well plate included media controls with and without test compound, 0.1% DMSO solvent control cells and cells exposed to a single concentration of eight different test compounds (FIG. 1A). Media controls were included on each plate to assess the impact of test compound on the sample matrix. hES cells were exposed to the test compound for 72 hours, with media and test compound replacement every 24 hours. Cells were monitored throughout the treatment period to ensure that no differentiation was occurring. After 72 hours of treatment, the spent media from the final 24-hour treatment period was collected and added to acetonitrile (Sigma-Aldrich, final acetonitrile concentration 40%), to halt metabolic processes and precipitate proteins from solution. Individual wells from each 96-well plate were collected and analyzed as separate samples. These samples were then stored at −80° C. until prepared for LC-HRMS analysis. Cell viability was assessed using the CellTiter-Fluor Cell Viability Assay as per the manufacturer's instructions (Promega, Madison, Wis.). Quality control parameters were set such that if the coefficient of variation (CV) for the viability relative fluorescent units (RFU) of the 6 cellular samples in a treatment exceeded 10% and no outliers were identified using the Grubb's test (see the worldwide web at graphpad.com/quickcalcs/Grubbs1.cfm), analysis was halted for that compound and the cell culture experiment was repeated. If outliers were present, the outlier sample was removed from analysis. If the CV for the DMSO control cell samples on a plate were outside of the quality control parameters, the entire plate was repeated. hES cell exposure to each of the 23 compounds was replicated a total of nine times.
as §1
Phase 2 Prediction of Developmental Toxicity Potential. […] FIG. 2 illustrates how the assay is applied in this situation. A test compound is considered to be teratogenic at the exposure level where the o/c ratio exceeds the teratogenicity threshold (red box, FIG. 2).

Rodent = settings: cited from earlier work; for Rodent in vivo test results: Embryotoxic: embryotoxic effect in the absence of teratogenic effects and maternal toxicity
Rabbit = settings: cited from earlier work
[3] = tested on: mouse embryonic stem cell; settings: cited from earlier work
rat whole embryo = settings: cited from earlier work
[4] = summarized from TERIS and Briggs et al. 2011, cited from earlier work; for Preclinical in vivo developmental effects: application set compounds
[5] = cited from earlier work
Humans = settings: cited from earlier work; for Humans (known human developmental toxicity): training and test set; for Known Effect: validation and test set treatments of Example 2
zebrafish = settings: training and test set; weak/moderate and strong teratogens both labeled teratogen; cited from earlier work
hES cells [6] = assay: devTOX computational model predictions (Version 2.0, Version 2.1) from hES cell metabolomics; format: cell-based, human; settings: single dose per treatment (Dose column)
Source text: The selection process weighted the predictive capacity of a feature, overall intensity, and peak shape to identify very well behaved features/metabolites that could be measured by targeted LC-MS or even by other detection systems.
(§2) This simplified model is based on a ratio of the reference treatment (DMSO) normalized values of ADMA and cystine.

hES cells [7] = assay: ADMA/cystine ratio simplified predictive model in hES cell spent media; format: cell-based, human; settings: single dose per treatment; ratios less than 0.9 indicate teratogenicity
Source text: as §2
The X-axis is the reference normalized ratio of ADMA/Cystine. The y-axis is the training set of pharmaceuticals. Grey color with triangle glyphs represents teratogens and black color with circle glyphs represents non-teratogens. Each glyph point represents the media value of an independent experimental block (6 reps per block). The crosshair glyphs mark the sample medians. In FIG. 9, grey vertical line is threshold of teratogenicity, grey horizontal lines are the median absolute deviations, and black vertical line designates 1.0. The arrows at the bottom indicate the values used for differentiation of teratogens and nonteratogens, utilizing a cut off of 0.9 (grey line).

[8] = application set, made using the therapeutic Cmax when available
[9] = test set, therapeutic peak plasma in vivo concentration, human
[10] = training and test set, weak/moderate and strong teratogens both labeled teratogen
[11] = training set, therapeutic peak plasma in vivo concentration, human
[12] = application set, peak plasma concentration in humans
[13] = test set, interpolated concentration where cell viability dose response curve crosses teratogenicity threshold 0.88, 72 hours
[14] = test set, teratogenicity potential scored against therapeutic Cmax

Molecule | Rodent prediction (Rodent; application set) | Rabbit prediction (Rabbit; application set) | WEC prediction (rat whole embryo; application set) | Preclinical in vivo developmental effects [4] | O/C Ratio Prediction (WA09 hES cells [1]) | Targeted Biomarker Assay prediction (WA09 hES cells [1]) | Teratogenicity Potential (μM) O/C Ratio (WA09 hES cells [1]; human, 72 h) [µM] | Viability Prediction (WA09 hES cells [2]) | Teratogenicity Potential (μM) Cell Viability (WA09 hES cells [2]; human, 72 h) [µM] | Cmax [5, 9] [µM] | Humans (known human developmental toxicity) (Humans) | Rodent prediction (Rodent; training and test set) | ZET prediction (zebrafish) | WEC prediction (rat whole embryo; [10]) | Preclinical in vivo and known human developmental effects ([4]; test set compounds) | Rabbit prediction (Rabbit; training and test set) | mEST prediction [3, 10] | also measured
NC(=O)c1ccc(N)nc1 [6-Aminonicotinamide] | TER | TER | TER^d | Craniofacial | – | – | – | – | – | – | – | – | – | – | – | – | – | Teratogenicity Potential (μM) O/C Ratio (WA09 hES cells [1]; application set, interpolated concentration where o/c ratio dose response curve crosses teratogenicity threshold 0.88, 72 hours): <0.04 µM; Targeted Biomarker Assay prediction (WA09 hES cells [1]; [8]): TER; Teratogenicity Potential (μM) Cell Viability (WA09 hES cells [2]; application set, interpolated concentration where cell viability dose response curve crosses teratogenicity threshold 0.88, 72 hours): 24.5 µM; Rodent in vivo test results: Teratogenic (Rodent; application set, structural malformations in the absence of maternal toxicity): +^d; mEST prediction ([3]; application set): TER^c
CC(=O)Nc1ccc(O)cc1 [Acetaminophen] | – | – | – | – | NON | NON | >300 | NON | >300 | 116 | NON | NON | NON^e | TER^k | None | – | – | –
CS(=O)(=O)OCCCCOS(C)(=O)=O [Busulfan] | – | – | – | – | TER | TER | 0.6 | TER | 3 | – | TER | TER | – | TER^j | – | TER | TER^i | Cytotoxicity at the Cmax exposure level (WA09 hES cells [2]; human, 72 h): greater than 30%; Model Predictions Version 2.0 (hES cells [6]): Ter; Model Predictions Version 2.1 (hES cells [6]): Ter; Model Predictions ADMA/Cystine (hES cells [7]): Ter; Cmax [5, 11]: 49.6 µM; Known Effect (Humans): Ter; Preclinical in vivo and known human developmental effects ([4]; training set compounds): Craniofacial, limb, embryo
CC(C)(S)[C@@H](N)C(=O)O [D-Penicillamine] | – | – | – | – | TER | TER | <0.04 | NON | >300 | 13.4 | TER | TER | NON^d | NON^f | Skeletal | – | NON^m | Classification by o/c ratio in the targeted biomarker assay (WA09 hES cells [1]): correctly classify
CNCCC(Oc1ccc(C(F)(F)F)cc1)c1ccccc1 (centres unmarked) [Fluoxetine] | TER | NON | NON^f,g | Embryo toxicity^c | – | NON | 25.1 | – | 23 | – | – | – | – | – | – | – | – | Cmax [5, 12]: 0.04 µM; Rodent in vivo test results: Embryotoxic (Rodent; application set): +; mEST prediction ([3]; application set): TER^e
CCOC(=O)N1CCC(=C2c3ccc(Cl)cc3CCc3cccnc32)CC1 [Loratadine] | – | – | – | – | – | – | – | – | – | – | – | NON | TER^d | NON^f,j | None | NON | NON^i | Targeted Biomarker Assay prediction (WA09 hES cells [1]; training and test set, o/c ratio scored against therapeutic Cmax): NON; Teratogenicity Potential (μM) Cell Viability (WA09 hES cells [2]; [13]): 76.3 µM; Viability Prediction (WA09 hES cells [2]; [14]): NON
CN(CCOc1ccc(CC2SC(=O)NC2=O)cc1)c1ccccn1 (centres unmarked) [Rosiglitazone] | TER | TER | NON^h | Embryo toxicity^c | – | – | 18.9 | – | 21.8 | – | – | – | – | – | – | – | – | Targeted Biomarker Assay prediction (WA09 hES cells [1]; [8]): NON; Cmax [5, 12]: 1.7 µM; Rodent in vivo test results: Embryotoxic (Rodent; application set): +
S=P(N1CC1)(N1CC1)N1CC1 [ThioTEPA] | – | – | – | – | TER | TER | 0.04 | – | – | 7 | TER | TER | TER^v | – | Skeletal, embryo toxicity^c | TER | – | Teratogenicity Potential (μM) Cell Viability (WA09 hES cells [2]; [13]): 0.5 µM; Viability Prediction (WA09 hES cells [2]; [14]): TER
Cytosine Arabinoside | – | – | – | – | – | – | – | – | – | – | – | TER | TER^n | TER^j | – | – | TER^i | Teratogenicity Potential (μM) O/C Ratio (WA09 hES cells [1]; training set, interpolated concentration where o/c ratio dose response curve crosses teratogenicity threshold 0.88, 72 hours): 0.04 µM; Teratogenicity Potential (μM) Cell Viability (WA09 hES cells [2]): 0.1 µM; Model Predictions Version 2.0 (hES cells [6]): Ter; Model Predictions Version 2.1 (hES cells [6]): Ter; Model Predictions ADMA/Cystine (hES cells [7]): Ter; Cmax [5, 11]: 0.6 µM; Known Effect (Humans): Ter; Preclinical in vivo and known human developmental effects ([4]; training set compounds): Limb
